The test system of test [1] is Lactobacillus fructivores (NBRC 13954). The test is described as follows: Antimicrobial action of oxygen-containing heterocyclic compounds in soy sauce (Test Example 7). The class given is cell-based. Particulars: NBRC13954, 168 h, salt 4% (w/v), alcohol 5% (v/v); for activity at 0.1 ppm: test substance 0.1 ppm; for activity at 0.5 ppm: test substance 0.5 ppm; for activity at 1 ppm: test substance 1 ppm; for activity at 5 ppm: test substance 5 ppm; for activity at 25 ppm: test substance 25 ppm; for activity at 50 ppm: test substance 50 ppm. As for the experimental part: (§1) Commercially available whole soybean soy sauce (produced by Kikkoman Corporation) was electrodialyzed and then concentrated under reduced pressure to produce soy sauce at a salt concentration of 0% (w/v) and an alcohol concentration of 0% (v/v). Then, salt and/or alcohol was added to the above-mentioned obtained soy sauce, and the mixture was then heat-treated to produce soy sauce at a salt concentration of 4% (w/v) and an alcohol concentration of 5% (v/v).
The test substance described in Table 21 was added to the soy sauce produced in Test Example 6 to concentrations of 0.1 ppm, 0.5 ppm, 1 ppm, 5 ppm, 25 ppm, and 50 ppm. Lactic acid bacteria (Lactobacillus fructivores (NBRC 13954)) were then added to 10^4 to 10^5 cells/mL and cultured at 30° C. for 7 days. After the culture, the number of lactic acid bacteria was measured using Difco Lactobacilli MRS Agar. Soy sauce to which the test substance was not added was used as a control group, and the antimicrobial activity was evaluated in comparison with the number of lactic acid bacteria in the control group. The evaluation was performed using the following criterion.
• A: The bacterial count decreases to less than 10% of the bacterial count of a control group. • B: The bacterial count decreases to 10% or more and less than 50% of the bacterial count of the control group. • C: The bacterial count decreases to 50% or more and less than 100% of the bacterial count of the control group. • D: The bacterial count is the same as the bacterial count of the control group.

Test [2] has as its system Lactobacillus rennini (DSM 20253). Nature of the test: Antimicrobial action of oxygen-containing heterocyclic compounds in soy sauce (Test Example 6). The arrangement: key to Antimicrobial activity: A: The bacterial count decreases to less than 10% of the bacterial count of the control group.; B: The bacterial count decreases to 10% or more and less than 50% of the bacterial count of the control group.; C: The bacterial count decreases to 50% or more and less than 100% of the bacterial count of control group.; D: The bacterial count is the same as the bacterial count of the control group. To be noted: salt 4% (w/v), alcohol 5% (v/v); for activity at 1 ppm / activity at 5 ppm / activity at 10 ppm / activity at 25 ppm / activity at 50 ppm / activity at 100 ppm: Loigolactobacillus rennini, DSM20253, 168 h; for activity at 1 ppm / Antimicrobial activity: test substance 1 ppm; for activity at 5 ppm: test substance 5 ppm; for activity at 10 ppm: test substance 10 ppm; for activity at 25 ppm: test substance 25 ppm; for activity at 50 ppm: test substance 50 ppm; for activity at 100 ppm: test substance 100 ppm. The class given is cell-based. As to the method:
as §1
The test substance described in Table 20 was added to the above-mentioned produced soy sauce to concentrations of 1 to 100 ppm. Lactic acid bacteria (Lactobacillus rennini (DSM 20253)) were then added to 10^6 to 10^7 cells/mL and cultured at 30° C. for 7 days. After the culture, the number of lactic acid bacteria was measured using the GAM agar medium “Nissui”. Soy sauce to which licoricidin was not added was used as a control group, and the antimicrobial activity was evaluated in comparison with the number of lactic acid bacteria in the control group. The evaluation was performed using the criterion shown below.
• A: The bacterial count decreases to less than 10% of the bacterial count of the control group. • B: The bacterial count decreases to 10% or more and less than 50% of the bacterial count of control group. • C: The bacterial count decreases to 50% or more and less than 100% of the bacterial count of the control group. • D: The bacterial count is the same as the bacterial count of the control group. • -: Not evaluated

Turning to `CC(C)=CCc1c(O)c(CC=C(C)C)c2occ(-c3ccc(O)cc3)c(=O)c2c1O` [8-(γ,γ-dimethylallyl)-wighteone, 6,8-bis(3-methyl-2-butenyl)-3-(4-hydroxyphenyl)-5,7-dihydroxy-4H-1-benzopyran-4-one], in test [1], the activity at 0.1 ppm lay in the range of 10 to 50%, the activity at 0.5 ppm lay in the range of 10 to 50%, the activity at 1 ppm lay in the range of 10 to 50% and the activity at 5 ppm is below 10%. In test [1], the activity at 25 ppm is below 10% and the activity at 50 ppm was below 10%. Further, in test [2], the activity at 1 ppm was 50 to 100%, the activity at 5 ppm is below 10%, the activity at 10 ppm is below 10% and the activity at 25 ppm is below 10%. Moreover, in test [2], the activity at 50 ppm is below 10% and the activity at 100 ppm was below 10%.
For `COc1cc2oc(-c3ccc(O)cc3O)cc2c(OC)c1CC=C(C)C` [Gancaonin I, 5-(3-methyl-2-butenyl)-2-(2,4-dihydroxyphenyl)-4,6-dimethoxybenzofuran], in test [1], the activity at 0.1 ppm is 10 to 50%, the activity at 0.5 ppm lay within 50 to 100%, the activity at 1 ppm fell in the range of 10 to 50% and the activity at 5 ppm lay in the range of 50 to 100%. Moreover, in test [1], the activity at 25 ppm fell in the range of 10 to 50% and the activity at 50 ppm was below 10%. Besides, in test [2], the activity at 1 ppm is 50 to 100%, the activity at 5 ppm was below 10%, the activity at 10 ppm is below 10% and the activity at 25 ppm was below 10%. Also, in test [2], the activity at 50 ppm was below 10% and the activity at 100 ppm was below 10%.
In the case of `COc1c(CC=C(C)C)c(O)cc2c1C[C@H](c1ccc(O)cc1O)CO2` [Glyasperin C, (3R)-3β(2,4-dihydroxyphenyl)-5-methoxy-6-(3-methyl-2-butenyl)-3,4-dihydro-2H-1-benzopyran-7-ol], in test [1], the activity at 0.1 ppm lay in the range of 10 to 50%, the activity at 0.5 ppm lay in the range of 10 to 50%, the activity at 1 ppm lay within 10 to 50% and the activity at 5 ppm is 10 to 50%. Moreover, in test [1], the activity at 25 ppm lay within 10 to 50% and the activity at 50 ppm was below 10%. In test [2], the activity at 1 ppm is 10 to 50%, the activity at 5 ppm fell in the range of 10 to 50%, the activity at 10 ppm lay in the range of 10 to 50% and the activity at 25 ppm is below 10%. Besides, in test [2], the activity at 50 ppm was below 10% and the activity at 100 ppm was below 10%.
In the case of `COc1c(CC=C(C)C)c(O)cc2oc(=O)c(-c3ccc(O)cc3O)cc12` [Glycycoumarin, 3-(2,4-dihydroxyphenyl)-7-hydroxy-5-methoxy-6-(3-methyl-2-butenyl)-2H-1-benzopyran-2-one], in test [1], the activity at 0.1 ppm fell in the range of 10 to 50%, the activity at 0.5 ppm fell in the range of 10 to 50%, the activity at 1 ppm lay within 10 to 50% and the activity at 5 ppm fell in the range of 10 to 50%. Also, in test [1], the activity at 25 ppm was below 10% and the activity at 50 ppm was below 10%. Besides, in test [2], the activity at 5 ppm was in the range of 10 to 50%, the activity at 10 ppm fell in the range of 10 to 50%, the activity at 25 ppm is below 10% and the activity at 50 ppm is below 10%. For the same molecule, in test [2], the activity at 100 ppm is below 10% and the Antimicrobial activity result is given as “D”.
For `COc1cc2oc(=O)c(-c3ccc(O)cc3O)cc2c(OC)c1CC=C(C)C` [Glycyrin, 3-(2,4-dihydroxyphenyl)-5,7-dimethoxy-6-(3-methyl-2-butenyl)-2H-1-benzopyran-2-one], in test [1], the activity at 0.1 ppm fell in the range of 10 to 50%, the activity at 0.5 ppm lay in the range of 10 to 50%, the activity at 1 ppm fell in the range of 10 to 50% and the activity at 5 ppm was in the range of 10 to 50%. Moreover, in test [1], the activity at 25 ppm was 10 to 50% and the activity at 50 ppm lay in the range of 10 to 50%. Moreover, in test [2], the activity at 5 ppm lay within 10 to 50%, the activity at 10 ppm was in the range of 10 to 50%, the activity at 25 ppm was below 10% and the activity at 50 ppm is below 10%. Also, in test [2], the activity at 100 ppm is below 10% and the Antimicrobial activity entry was “D”.
Regarding `CC(C)=CCc1cc(-c2coc3cc(O)c(CC=C(C)C)c(O)c3c2=O)cc(O)c1O` [Isoangustone A, 3-[3,4-dihydroxy-5-(3-methyl-2-butenyl)phenyl]-5,7-dihydroxy-6-(3-methyl-2-butenyl)-4H-chromen-4-one], in test [1], the activity at 0.1 ppm was 10 to 50%, the activity at 0.5 ppm was 10 to 50%, the activity at 1 ppm was in the range of 50 to 100% and the activity at 5 ppm is 10 to 50%. Also, in test [1], the activity at 25 ppm was below 10% and the activity at 50 ppm is below 10%. Further, in test [2], the activity at 1 ppm fell in the range of 10 to 50%, the activity at 5 ppm is below 10%, the activity at 10 ppm is below 10% and the activity at 25 ppm is below 10%. Besides, in test [2], the activity at 50 ppm was below 10% and the activity at 100 ppm is below 10%.
Turning to `C=CC(C)(C)c1c(O)cc(OC)c2cc(-c3ccc(O)cc3O)c(=O)oc12` [Licoarylcoumarin, 3-(2,4-dihydroxyphenyl)-7-hydroxy-5-methoxy-8-(2-methyl-3-butene-2-yl)coumarin], in test [1], the activity at 0.1 ppm is 10 to 50%, the activity at 0.5 ppm lay within 10 to 50%, the activity at 1 ppm is 10 to 50% and the activity at 5 ppm was 50 to 100%. Also, in test [1], the activity at 25 ppm fell in the range of 10 to 50% and the activity at 50 ppm is 10 to 50%. In test [2], the activity at 5 ppm fell in the range of 50 to 100%, the activity at 10 ppm was in the range of 50 to 100%, the activity at 25 ppm was in the range of 10 to 50% and the activity at 50 ppm fell in the range of 10 to 50%. For the same molecule, in test [2], the activity at 100 ppm was below 10% and the Antimicrobial activity entry is listed as “D”.
